How the values were obtained:
[1] = test system: porcine transmissible gastroenteritis virus (TGEV); test: Anti-coronavirus inhibitory activity against TGEV in ST cells; format: cell-based; details: 48 hours
Procedure: (§1) Antiviral activity of quercetin-7-rhamnoside against porcine transmissible gastroenteritis virus (TGEV) and porcine respiratory coronavirus (PRCV), another kind of coronaviruses, was evaluated. ST cells were cultured on a 96-well microplate until the bottom of each well was completely covered with cells. Remaining culture medium was completely removed and each well was washed twice with a phosphate buffer. TGEV or PRCV solution adjusted to a concentration of TCID50 was added to each well. Each of quercetin-7-rhamnoside, conventional antiviral agents purchased from Sigma-ribavirin, lamivudine, azidovudine, acycloguanine and glycyrrhizhin-dissolved in dimethyl sulfoxide was added to each well to a final concentration of 0.1-100 μg/mL. […] Similarly to the aforesaid evaluation of antiviral inhibitory activity against PEDV, c ells treated with DMSO only and those treated with both DMSO and TGEV or both DMSO and PRCV were used as control groups.

[2] = test system: porcine respiratory coronavirus (PRCV); test: Anti-coronavirus inhibitory activity against PRCV in ST cells; format: cell-based; details: 48 hours
Procedure: as §1

[3] = test system: influenza type A (H1N1/WS/33) virus; test: Antiviral activity against influenza type A virus in MDCK cells (SRB); format: cell-based, influenza virus type A (H1N1; WS/33 strain); details: 10 μg/mL, influenza A H1N1/WS/33 in MDCK cells, 48 hours, repeated 3 times
Procedure: In order to evaluate the inhibitory activity of quercetin-7-rhamnoside against influenza virus, the following in vitro test was performed using MDCK cells derived from dog kidney.
Inhibitory activity of quercetin-7-rhamnoside against viral proliferation was measured by the method proposed by Kwon Dur-Han, et al. (Korean Patent Application No. 2004-101863). Inhibitory activity against influenza virus type A (H1N1; WS/33 strain) was measured. MDCK cells were cultured on a 96-well microplate until the bottom of each well was completely covered with cells. Remaining culture medium was completely removed and each well was washed twice with a phosphate buffer. Each of quercetin-7-rhamnoside; conventional antiviral agents purchased from Sigma-ribavirin and amantadine; oseltamivir (trade name: Tamiflu) purchased from Roche; and zanamivir (trade name: Relenza) purchased from Glaxo Wellcome; dissolved in dimethyl sulfoxide was added to each well to a final concentration of 10 μg/mL. […] After adding 100 μL of 70% acetone, each well was kept at −20° C. for 1 hour. After drying in a desiccator, 100 μL of 0.4% (w/v) SRB (sulforhodamine B) solution dissolved in 1% (v/v) acetic acid was added. After 30 minutes' staining, the SRB staining solution not bound to the cells was washed off with 1% (v/v) acetic acid for 4 times. After drying, 100 μL of 10 mM Tris solution (pH 10.5) was added to each well to dissolve the stained substance at the bottom of the well. Light absorbance was measured at 562 nm to evaluate the antiviral activity. As control group, viability of cells treated with DMSO only was compared with those treated with both DMSO and virus. Each test was repeated 3 times.

[4] = test system: influenza type B (B/Lee/40) virus; test: Inhibitory activity against influenza type B virus in MDCK cells (SRB); format: cell-based; details: 10 μg/mL, influenza B/Lee/40 in MDCK cells, 48 hours, repeated 3 times
rotavirus (strain: OSU) = test: Inhibitory activity against rotavirus in MA104 cells (SRB); format: cell-based; details: 10 μg/mL, rotavirus OSU in MA104 cells, 48 hours, repeated 2 times
Procedure: (§2) In order to evaluate the inhibitory activity of quercetin-7-rhamnoside against rota virus, the following in vitro test was performed using MA014 cells derived from pig kidney. Inhibitory activity of quercetin-7-rhamnoside against viral proliferation was measured by the method proposed by Kwon Dur-Han, et al. (Korean Patent Publication No. 2004-101863). Inhibitory activity against rotavirus (strain: OSU) was measured. MA104 cells were cultured on a 96-well microplate until the bottom of each well was completely covered with cells. Remaining culture medium was removed and each well was washed twice with a phosphate buffer. A rota virus solution adjusted to a concentration of TCID 50 was added to each well. […] After 48 hours, the MA104 cells were observed under a microscope. After adding 100 μL of 70% acetone, each well was kept at −20° C. for 1 hour. After drying in a desiccator, 100 μL of 0.4% (w/v) SRB (sulforhodamine B) solution dissolved in 1% (v/v) acetic acid was added. After 30 minutes of staining, the SRB solution not bound to the cells was washed off with 1% (v/v) acetic acid for 4 times. After drying, 100 μL of 10 mM Tris solution (pH 10.5) was added to each well to dissolve the stained substance at the bottom of the well. Light absorbance was measured at 562 nm to evaluate the antiviral activity. As control group, viability of cells treated with DMSO only was compared with those treated with both DMSO and virus. Each test was repeated for 2 times.

[5] = test system: rhinovirus (strain: rhinovirus 2); test: Inhibitory activity against rhinovirus in HeLa cells (SRB); format: cell-based; details: 10 μg/mL, rhinovirus 2 in HeLa cells, 48 hours, repeated 3 times
Procedure: as §2, with “against rhino” for “against rota”, “using HeLa, one of human cervical cancer cell lines, cells.” for “using MA014 cells derived from pig kidney.”, “2004-101863). […] HeLa” for “2004-101863). Inhibitory activity against rotavirus (strain: OSU) was measured. MA104”, “A rhino” for “A rota”, “the HeLa” for “the MA104”, “for 3” for “for 2”

mice = test: Toxicity test in mice; format: in vivo; details: 10 g/kg, dissolved in DMSO and diluted with water, observed for 7 days
Procedure: Toxicity test was performed as follows for the quercetin-7-rhamnoside of the present invention.
Quercetin-7-rhamnoside dissolved in dimethyl sulfoxide (DMSO) and diluted with water was administered to mice (10 per each group) at a dosage of 10 g/kg.

ST cells = test: Cytotoxicity (CC50) in ST cells; details: 0.1-100 μg/mL, 48 hours
Vero cells = test: Cytotoxicity (CC50) in Vero cells; details: 0.1-100 μg/mL, 48 hours
[6] = test system: porcine epidemic diarrhea virus (PEDV); test: Antiviral activity against PEDV in Vero cells (SRB staining); details: PEDV in Vero cells, maximum dosage 100 μg/mL, 48 hours

## C[C@@H]1O[C@@H](Oc2cc(O)c3c(=O)c(O)c(-c4ccc(O)c(O)c4)oc3c2)[C@H](O)[C@H](O)[C@H]1O [Quercetin-7-rhamnoside, quercetin-7-rhamnoside]
[1]
  IC50: (63.3 μg/mL)]
[2]
  IC50: (59.8 μg/mL)]
[3]
  Inhibitory activity (%) (Mean ± S.D.): 66.03%
[4]
  Inhibitory activity (%) (Mean ± S.D.): 92.66%
Rotavirus (strain: OSU)
  Inhibitory activity (%) (Mean ± S.D.): 77.37%
[5]
  Inhibitory activity (%) (Mean ± S.D.): 77.89%
mice
  deaths after administration: none of them were found dead
ST cells
  CC50: > 100 µg/mL
Vero cells
  CC50 (concentration required for 50% cytotoxicity): > 100 µg/mL
[6]
  IC50 (concentration required for 50% inhibition of viruses): (0.014 μg/mL)]

Source: US7998937B2, “Flavonoid compound having an antiviral activity” (Korea Research Institute of Bioscience and Biotechnology, priority 2005, dated 2011)
